This passage reports GI50 and TGI results from PubChem BioAssay (NCI).

As usually defined, the GI50 is the concentration at which growth is held to half of that of the control. As a reminder, the TGI is the concentration at which net growth stops.

“And” between values parts separate entries of the source, which are not always exact repeats. Identical values can stand only once.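 The compound was tested at five concentrations on cells cultured in 96-well plates, with a 48-hour exposure period. GI50 is the concentration that inhibits growth by half. TGI denotes the concentration required for complete inhibition of growth.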

Among the test systems are IGROV1 ovarian; NCI-H522 lung; NCI/ADR-RES ovarian; OVCAR-3 ovarian; OVCAR-8 ovarian; SK-OV-3 ovarian; SR leukemia; TK-10 renal; DLD-1 colon; KM20L2 colon.
What all share (assay): DTP human tumour cell line panel, 48 h

Take `CN(CCCCCCCCNc1ccnc2ccccc12)Cc1ccc(-c2ccc(-c3ccc(C#N)cc3)s2)cc1`: the GI50 in the test on IGROV1 ovarian was 1.4 µM; with NCI-H522 lung, 1.35 µM; with NCI/ADR-RES ovarian, 1.2 µM; with OVCAR-3 ovarian it was 0.647 µM; with OVCAR-8 ovarian, 1.02 µM; with SK-OV-3 ovarian it was 1.65 µM. Besides, the values for the concentration for 50% growth inhibition (GI50) in the test with SR leukemia and in the test on TK-10 renal were 0.083 µM and 1.57 µM, respectively. Also, the concentration for total growth inhibition (TGI) in the test with IGROV1 ovarian turned out to be 3.02 µM; in the test with NCI-H522 lung, 3.36 µM; in the test with NCI/ADR-RES ovarian, 3.23 µM; with OVCAR-3 ovarian, 2.07 µM; with OVCAR-8 ovarian it was 4.5 µM; with SK-OV-3 ovarian it was 3.27 µM. In addition, the TGI in the test with SR leukemia amounted to 0.35 µM; in the test with TK-10 renal, 3.18 µM.

For `Cc1c(C(=O)/C=C/c2ccc(Cl)cc2)nnn1-c1ccnc2c(C(F)(F)F)cccc12`, the GI50 with IGROV1 ovarian is 97.3 µM; with NCI-H522 lung, 27.6 µM; with NCI/ADR-RES ovarian it was 48.4 µM; in the test on OVCAR-3 ovarian, 36.6 µM; in the test on OVCAR-8 ovarian, 42.7 µM; in the test on SK-OV-3 ovarian it was 42.1 µM. Moreover, the GI50 in the test on SR leukemia is 8.71 µM; in the test with TK-10 renal, 34.9 µM. The TGI in the test with IGROV1 ovarian is above 100 µM; in the test with NCI-H522 lung, above 100 µM; in the test on NCI/ADR-RES ovarian, above 100 µM; in the test with OVCAR-3 ovarian it was above 100 µM; in the test with OVCAR-8 ovarian, above 100 µM; in the test with SK-OV-3 ovarian it was 92.9 µM. In addition, the values for the TGI in the test on SR leukemia and with TK-10 renal were 55.2 µM and above 100 µM, respectively.

Turning to `CC(C)c1ccc(C(c2c(O)c3ccccc3oc2=O)c2c(O)c3ccccc3oc2=O)cc1`, the concentration for total growth inhibition (TGI) is above 62.6 µM with IGROV1 ovarian; 45.6 µM in the test with NCI-H522 lung; 65.9 µM in the test on NCI/ADR-RES ovarian; 37.9 µM in the test on OVCAR-3 ovarian; 42.5 µM in the test with OVCAR-8 ovarian; 65.8 µM with SK-OV-3 ovarian. The TGI in the test on SR leukemia turned out to be 31.1 µM; with TK-10 renal, 68 µM.

`COC(=O)/C(=N\Nc1nc(=S)[nH]n1N)C(C#N)c1ccc(Cl)cc1` (stereo unspecified): the TGI in the test on DLD-1 colon, in the test with IGROV1 ovarian, in the test with KM20L2 colon, in the test with OVCAR-3 ovarian, with OVCAR-8 ovarian and with SK-OV-3 ovarian was above 100 µM in each case. For the same compound, in the test on TK-10 renal, the concentration for total growth inhibition (TGI) was above 100 µM.

For the compound `CN1CCN(C(=O)[C@@]2(C)CC[C@]3(C)CC[C@]4(C)C(=CC[C@@H]5[C@@]6(C)CC[C@H](OC(=O)c7cccnc7)C(C)(C)[C@@H]6CC[C@]54C)[C@@H]3C2)CC1`, the GI50 in the test on IGROV1 ovarian was 1.93 µM; with NCI-H522 lung, 1.95 µM; with NCI/ADR-RES ovarian, 1.75 µM; in the test with OVCAR-3 ovarian it was 1.74 µM; in the test with OVCAR-8 ovarian, 2.06 µM; with SK-OV-3 ovarian, 10.4 µM. Moreover, the GI50 with SR leukemia is 0.937 µM; in the test on TK-10 renal, 1.79 µM. In addition, the concentration for total growth inhibition (TGI) was 3.89 µM in the test with IGROV1 ovarian; 4.17 µM in the test on NCI-H522 lung; 3.72 µM in the test on NCI/ADR-RES ovarian; 3.29 µM in the test on OVCAR-3 ovarian; 4.3 µM in the test with OVCAR-8 ovarian; 22 µM in the test on SK-OV-3 ovarian. Besides, the results for the total growth inhibition concentration (TGI) in the test on SR leukemia and in the test on TK-10 renal were 4.08 µM and 3.31 µM, respectively.

`Cc1ccc(-c2nc3ccccc3c(=O)n2NC2OC(CO)C(O)C(O)C2O)cc1` (stereo unspecified): the TGI with IGROV1 ovarian, with KM20L2 colon, in the test on NCI-H522 lung, with OVCAR-3 ovarian, in the test on OVCAR-8 ovarian and with SK-OV-3 ovarian was above 100 µM in each case. In addition, the concentration for total growth inhibition (TGI) in the test with TK-10 renal was above 100 µM.

As for `CCN(CC)CCOc1ccc(NC(=O)C(C(C)C)N2C(=O)/C(=C/c3ccc(Br)cc3)SC2=S)cc1` (stereo unspecified), the GI50 was 2.61 µM in the test on IGROV1 ovarian; 2.03 µM in the test with NCI-H522 lung; 3.93 µM with NCI/ADR-RES ovarian; 1.95 µM with OVCAR-3 ovarian; 3.24 µM in the test on OVCAR-8 ovarian; 15.9 µM with SK-OV-3 ovarian. Further, the GI50 in the test on SR leukemia was 2.16 µM; with TK-10 renal, 2.17 µM. The TGI in the test with IGROV1 ovarian was 8.03 µM; in the test with NCI-H522 lung, 4.55 µM; with NCI/ADR-RES ovarian, 14.3 µM; with OVCAR-3 ovarian, 4.08 µM; with OVCAR-8 ovarian, 10.3 µM; with SK-OV-3 ovarian, 31.7 µM. Besides, the TGI in the test on SR leukemia turned out to be 6.43 µM; in the test with TK-10 renal, 5.09 µM.

Turning to `CCCn1cc(/C=N\N=C2\C(=O)Nc3ccc(C)cc32)c2ccccc21`, the GI50 in the test on IGROV1 ovarian is 3.38 µM; in the test with NCI-H522 lung it was 1.81 µM; in the test on NCI/ADR-RES ovarian it was 6.39 µM; in the test on OVCAR-3 ovarian, 1.36 µM; in the test with OVCAR-8 ovarian, 5.41 µM; with SK-OV-3 ovarian, 11.7 µM. The GI50 in the test on SR leukemia is 0.521 µM; in the test on TK-10 renal, 11.1 µM. Also, the TGI in the test with IGROV1 ovarian is 63.1 µM; in the test with NCI-H522 lung it was 6.59 µM; in the test with NCI/ADR-RES ovarian, 89.9 µM; with OVCAR-3 ovarian, 5.11 µM; in the test on OVCAR-8 ovarian, above 100 µM; in the test on SK-OV-3 ovarian it was 67.1 µM. Also, the total growth inhibition concentration (TGI) in the test on SR leukemia is 8.72 µM; in the test on TK-10 renal it was above 100 µM.

`COc1ccc(C2CC(c3ccc4ccccc4c3)=NN2c2nc(O)c(C3=c4cc(Cl)ccc4=NC3=O)s2)cc1` (stereo unspecified): the 50% growth inhibitory concentration (GI50) in the test on IGROV1 ovarian was 0.0254 µM; in the test on NCI-H522 lung, 0.0183 µM and < 0.005 µM; with NCI/ADR-RES ovarian, 0.0923 µM; in the test with OVCAR-3 ovarian it was 0.0202 µM and < 0.005 µM; with OVCAR-8 ovarian, 0.0328 µM; in the test with SK-OV-3 ovarian, 0.0217 µM and < 0.005 µM. The 50% growth inhibitory concentration (GI50) in the test on SR leukemia is 0.0338 µM and < 0.005 µM; in the test with TK-10 renal it was 0.0195 µM and < 0.005 µM. Moreover, the concentration for total growth inhibition (TGI) in the test with IGROV1 ovarian was 0.0736 µM; in the test with NCI-H522 lung, 0.0402 µM and < 0.005 µM; in the test on NCI/ADR-RES ovarian it was 50 µM; in the test on OVCAR-3 ovarian, 0.0396 µM and < 0.005 µM; with SR leukemia it was below 0.005 µM.

As to `COc1ccccc1-c1ccc2c(N)c(C(=O)c3ccc4c(c3)OCO4)sc2n1`, the GI50 in the test with IGROV1 ovarian is 7.93 µM; with NCI-H522 lung, 4.32 µM; in the test on NCI/ADR-RES ovarian it was 4.13 µM; in the test on OVCAR-3 ovarian it was 5.18 µM; in the test with OVCAR-8 ovarian, 4.57 µM; in the test on SK-OV-3 ovarian, 5.97 µM. Further, the GI50 in the test with SR leukemia was 2.99 µM; in the test with TK-10 renal, 12.8 µM. In addition, the TGI was 25.5 µM in the test with IGROV1 ovarian; 19.7 µM in the test with NCI-H522 lung; 16.7 µM in the test with NCI/ADR-RES ovarian; 22 µM in the test with OVCAR-3 ovarian; 16.7 µM in the test on OVCAR-8 ovarian; 18.2 µM in the test on SK-OV-3 ovarian. Also, the TGI with SR leukemia turned out to be 31.1 µM; in the test with TK-10 renal, 28.6 µM.
